Laboratory results published in article PMC4746591, “Internal (His)6-tagging delivers a fully functional hetero-oligomeric class II chaperonin in high yield” (Scientific Reports, 2016).

T1: thermosome α subunit with a (His)6-tag downstream Lys144 (αK144Ht) (Thermoplasma acidophilum, UniProt P48424 1-545)
T1 construct: thermosome α subunit, Thermoplasma acidophilum, P48424; synthetic gene (Invitrogen) with six histidines inserted downstream of Lys144, in the loop between beta sheet β4 and alpha helix α6; Eight copies stand in the α8/β8 hexadecamer; also called K144-(His)6 α-subunit; (His)6-tagged α subunit; source: E. coli BL21(DE3) Codon Plus-RIL, co-expressed with the β subunit from the construct …
T1 sequence: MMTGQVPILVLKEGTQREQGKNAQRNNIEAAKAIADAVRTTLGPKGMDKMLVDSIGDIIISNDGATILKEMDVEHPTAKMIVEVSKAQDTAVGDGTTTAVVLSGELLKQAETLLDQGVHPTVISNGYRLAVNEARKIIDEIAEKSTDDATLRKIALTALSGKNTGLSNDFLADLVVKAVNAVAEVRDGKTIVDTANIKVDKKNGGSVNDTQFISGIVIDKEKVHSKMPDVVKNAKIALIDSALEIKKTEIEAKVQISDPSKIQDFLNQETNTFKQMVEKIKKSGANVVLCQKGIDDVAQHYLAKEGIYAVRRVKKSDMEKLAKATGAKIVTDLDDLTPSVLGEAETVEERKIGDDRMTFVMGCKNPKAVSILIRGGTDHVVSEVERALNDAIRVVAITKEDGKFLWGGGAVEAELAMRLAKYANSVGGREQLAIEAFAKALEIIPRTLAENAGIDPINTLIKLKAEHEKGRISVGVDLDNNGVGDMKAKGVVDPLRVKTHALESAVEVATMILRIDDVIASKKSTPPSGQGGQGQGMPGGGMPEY


Key:
[1] = target: T2, (His)6-tagged α8/β8 thermosome (Ht thermosome, αK144Ht) (Thermoplasma acidophilum, UniProt P48424+P48425); experiment: coupled enzymatic steady-state ATPase assay; format: biochemical; conditions: 55 °C; tighter site of a two-site fit; read-out: KM1
T2 construct: gene thsA; full-length alpha with internal His6 inserted after Lys144, untagged beta; co-expressed in E. coli; α8/β8 hexadecamer, about 960 kDa

[2] = target: T1, thermosome α subunit with a (His)6-tag …; experiment: SEC; peak from the affinity column run on Superose 6 (or HiLoad 26/600 Superdex 200) in 25 mM TrisHCl, 150 mM NaCl, 5 mM EDTA pH 7.5, room temperature; single peak of about 960 kDa to 1 MDa (hexadecamer); SDS-PAGE of the peak; subunits co-expressed and co-purified; conditions: both partners purified

Km [1] | stoichiometry N [2] | Molecule
15 µM | – | Nc1ncnc2c1ncn2[C@@H]1O[C@H](COP(=O)(O)OP(=O)(O)OP(=O)(O)O)[C@@H](O)[C@H]1O [ATP]
– | 1 α:β ratio | thermosome β subunit (natural protein, Thermoplasma acidophilum, thermosome β subunit, Thermoplasma acidophilum, P48425; untagged; Eight copies stand in the α8/β8 hexadecamer; also called un-tagged β-subunit; source: E. coli BL21(DE3) Codon Plus-RIL, co-expressed in tandem with the α subunit (αK144HTTherm or pETTherm α/β); in lysate, then purified with the complex) MIAGQPIFILKEGTKRESGKDAMKENIEAAIAISNSVRSSLGPRGMDKMLVDSLGDIVITNDGVTILKEMDVEHPAAKMMVEVSKTQDSFVGDGTTTAVIIAGGLLQQAQGLINQNVHPTVISEGYRMASEEAKRVIDEISTKIGADEKALLLKMAQTSLNSKSASVAKDKLAEISYEAVKSVAELRDGKYYVDFDNIQVVKKQGGAIDDTQLINGIIVDKEKVHPGMPDVVKDAKIALLDAPLEIKKPEFDTNLRIEDPSMIQKFLAQEENMLREMVDKIKSVGANVVITQKGIDDMAQHYLSRAGIYAVRRVKKSDMDKLAKATGASIVSTIDEISSSDLGTAERVEQVKVGEDYMTFVTGCKNPKAVSILVRGETEHVVDEMERSITDSLHVVASALEDGAYAAGGGATAAEIAFRLRSYAQKIGGRQQLAIEKFADAIEEIPRALAENAGLDPIDILLKLRAEHAKGNKTYGINVFTGEIEDMVKNGVIEPIRVGKQAIESATEAAIMILRIDDVIATKSSSSSSNPPKSGSSSESSED
